Reference: ChEMBL document CHEMBL5725962, “Pyrazolo[1,5-A]PYRAZIN-4-YL derivatives” (2018)
pIC50: −log10 of the molar value.

Tests used:
[1] = target: Tyrosine-protein kinase JAK1 (Homo sapiens, UniProt P23458); assay: (§1) JAK Caliper Enzyme Assay at 1 mM ATP: Compounds were added to a 384-well plate. Reaction mixtures contained 10 mM HEPES, pH 7.4, 10 mM MgCl2, 0.01% BSA, 0.0005% Tween 20, 1 mM ATP and 1 μM peptide substrate. The JAK1 and TYK2 assays contained 1 μM of the IRStide peptide (5FAM-[…]) and the JAK2 and JAK3 assays contained 1 μM of the JAKtide peptide (FITC-[…]). The assays were initiated by the addition of 20 nM JAK1, 1 nM JAK2, 1 nM JAK or 1 nM TYK2 enzyme and were incubated at room temperature for three hours for JAK1, 60 minutes for JAK2, 75 minutes for JAK3 or 135 minutes for TYK2. Enzyme concentrations and incubation times were optimized for each new enzyme preps and were modified slightly over time to ensure 20% to 30% phosphorylation. The assays were stopped with 15 μL of 180 mM HEPES, pH 7.4, 20 mM EDTA, and 0.2% Coating Reagent 3. The assay plates were placed on a Caliper Life Science LC3000 instrument, and each well was sampled using appropriate separation conditions to measure the unphosphorylated and phosphorylated peptide.
Tyrosine-protein kinase JAK1, sequence (P23458 whole entry): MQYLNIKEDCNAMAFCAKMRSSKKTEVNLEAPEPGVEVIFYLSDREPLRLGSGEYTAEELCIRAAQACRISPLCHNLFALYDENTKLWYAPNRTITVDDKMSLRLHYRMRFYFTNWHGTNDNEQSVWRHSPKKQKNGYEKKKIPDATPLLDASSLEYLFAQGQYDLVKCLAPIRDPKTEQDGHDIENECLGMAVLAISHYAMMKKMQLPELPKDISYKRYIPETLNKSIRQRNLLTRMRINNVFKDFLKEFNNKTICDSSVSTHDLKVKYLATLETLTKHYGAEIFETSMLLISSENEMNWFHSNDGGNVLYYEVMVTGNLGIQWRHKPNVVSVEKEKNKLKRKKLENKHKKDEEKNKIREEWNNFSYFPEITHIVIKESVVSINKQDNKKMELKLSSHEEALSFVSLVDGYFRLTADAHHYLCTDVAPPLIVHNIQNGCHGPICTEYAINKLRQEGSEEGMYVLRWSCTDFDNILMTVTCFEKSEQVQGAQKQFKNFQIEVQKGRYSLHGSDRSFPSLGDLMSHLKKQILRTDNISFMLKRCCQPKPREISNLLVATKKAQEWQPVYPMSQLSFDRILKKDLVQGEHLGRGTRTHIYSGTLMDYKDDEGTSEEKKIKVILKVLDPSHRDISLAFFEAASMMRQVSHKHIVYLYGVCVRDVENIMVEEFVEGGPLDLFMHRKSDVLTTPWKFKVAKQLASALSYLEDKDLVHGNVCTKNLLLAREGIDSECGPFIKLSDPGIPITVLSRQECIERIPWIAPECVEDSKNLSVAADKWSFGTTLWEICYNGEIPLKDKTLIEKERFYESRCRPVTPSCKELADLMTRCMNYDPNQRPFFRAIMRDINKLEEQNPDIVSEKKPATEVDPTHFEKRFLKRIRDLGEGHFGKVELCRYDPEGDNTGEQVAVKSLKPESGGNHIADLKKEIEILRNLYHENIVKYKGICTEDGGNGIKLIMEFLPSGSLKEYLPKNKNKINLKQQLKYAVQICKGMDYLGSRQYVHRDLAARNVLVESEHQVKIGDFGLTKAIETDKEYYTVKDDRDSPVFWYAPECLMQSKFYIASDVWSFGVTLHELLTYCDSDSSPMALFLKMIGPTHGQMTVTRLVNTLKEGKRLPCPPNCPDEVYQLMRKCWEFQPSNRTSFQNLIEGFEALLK

[2] = target: Non-receptor tyrosine-protein kinase TYK2 (Homo sapiens, UniProt P29597); assay: as §1
Non-receptor tyrosine-protein kinase TYK2, sequence (P29597 whole entry): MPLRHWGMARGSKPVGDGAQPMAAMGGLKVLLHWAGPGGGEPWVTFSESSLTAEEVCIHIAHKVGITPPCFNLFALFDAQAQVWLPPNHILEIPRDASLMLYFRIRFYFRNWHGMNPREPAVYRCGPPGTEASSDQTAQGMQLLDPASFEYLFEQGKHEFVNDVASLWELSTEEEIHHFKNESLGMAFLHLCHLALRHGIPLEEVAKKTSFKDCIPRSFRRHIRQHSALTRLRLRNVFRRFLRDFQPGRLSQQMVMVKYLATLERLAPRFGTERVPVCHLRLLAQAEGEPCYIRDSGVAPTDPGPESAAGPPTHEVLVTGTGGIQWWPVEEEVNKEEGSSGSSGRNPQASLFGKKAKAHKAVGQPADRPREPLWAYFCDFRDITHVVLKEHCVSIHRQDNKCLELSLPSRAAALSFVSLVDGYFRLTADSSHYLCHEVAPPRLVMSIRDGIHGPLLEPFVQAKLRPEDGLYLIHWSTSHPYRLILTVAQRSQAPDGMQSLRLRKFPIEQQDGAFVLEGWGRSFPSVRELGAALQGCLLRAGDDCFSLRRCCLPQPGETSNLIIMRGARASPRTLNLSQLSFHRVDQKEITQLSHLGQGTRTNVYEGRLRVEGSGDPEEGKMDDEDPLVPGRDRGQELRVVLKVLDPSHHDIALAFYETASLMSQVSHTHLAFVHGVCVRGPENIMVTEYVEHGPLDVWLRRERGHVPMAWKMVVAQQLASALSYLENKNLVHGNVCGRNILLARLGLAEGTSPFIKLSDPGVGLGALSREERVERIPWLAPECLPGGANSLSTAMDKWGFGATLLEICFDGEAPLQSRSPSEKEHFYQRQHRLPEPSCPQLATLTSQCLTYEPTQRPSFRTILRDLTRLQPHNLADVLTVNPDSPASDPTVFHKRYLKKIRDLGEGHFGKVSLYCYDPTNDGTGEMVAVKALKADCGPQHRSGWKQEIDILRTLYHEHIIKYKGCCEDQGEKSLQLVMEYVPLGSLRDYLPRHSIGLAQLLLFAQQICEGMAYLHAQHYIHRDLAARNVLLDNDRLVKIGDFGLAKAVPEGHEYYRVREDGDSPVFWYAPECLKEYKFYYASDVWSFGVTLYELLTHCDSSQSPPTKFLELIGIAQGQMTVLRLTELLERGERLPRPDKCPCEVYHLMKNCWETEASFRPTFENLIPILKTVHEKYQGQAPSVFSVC

[3] = target: T1, Tyrosine-protein kinase JAK3 (Homo sapiens, UniProt P52333); assay: as §1
T1 sequence (P52333 whole entry): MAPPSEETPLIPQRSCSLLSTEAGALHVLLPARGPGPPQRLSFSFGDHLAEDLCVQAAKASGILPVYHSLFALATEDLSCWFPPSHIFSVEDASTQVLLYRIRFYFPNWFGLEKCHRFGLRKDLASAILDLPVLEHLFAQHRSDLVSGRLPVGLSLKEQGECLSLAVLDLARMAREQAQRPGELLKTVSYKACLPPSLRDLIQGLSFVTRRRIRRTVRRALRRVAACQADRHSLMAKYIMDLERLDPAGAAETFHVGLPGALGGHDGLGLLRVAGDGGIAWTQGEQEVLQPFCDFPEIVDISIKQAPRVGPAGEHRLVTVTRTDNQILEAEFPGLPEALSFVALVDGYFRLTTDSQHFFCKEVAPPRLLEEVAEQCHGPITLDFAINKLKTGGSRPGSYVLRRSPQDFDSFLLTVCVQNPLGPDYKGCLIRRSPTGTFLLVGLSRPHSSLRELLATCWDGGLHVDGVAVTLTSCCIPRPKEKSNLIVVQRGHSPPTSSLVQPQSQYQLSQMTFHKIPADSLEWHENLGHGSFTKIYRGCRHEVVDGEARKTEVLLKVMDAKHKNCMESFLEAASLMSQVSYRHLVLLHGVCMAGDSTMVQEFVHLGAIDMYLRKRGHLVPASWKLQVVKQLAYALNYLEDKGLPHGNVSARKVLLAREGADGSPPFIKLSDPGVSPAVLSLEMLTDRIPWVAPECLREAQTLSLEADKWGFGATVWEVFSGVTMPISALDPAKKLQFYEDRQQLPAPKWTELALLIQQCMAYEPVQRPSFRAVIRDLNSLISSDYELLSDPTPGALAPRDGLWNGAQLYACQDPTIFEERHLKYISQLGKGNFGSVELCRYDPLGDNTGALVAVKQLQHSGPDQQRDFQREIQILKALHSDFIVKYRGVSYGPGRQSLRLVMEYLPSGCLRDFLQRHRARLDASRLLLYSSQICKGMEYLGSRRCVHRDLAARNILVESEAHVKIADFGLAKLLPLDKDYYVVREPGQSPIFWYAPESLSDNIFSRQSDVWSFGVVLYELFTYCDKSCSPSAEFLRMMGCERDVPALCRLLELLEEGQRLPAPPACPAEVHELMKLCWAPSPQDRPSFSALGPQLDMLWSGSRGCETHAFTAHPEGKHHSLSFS

[4] = target: Tyrosine-protein kinase JAK2 (Homo sapiens, UniProt O60674); assay: Reaction mixtures contained 10 mM HEPES, pH 7.4, 10 mM MgCl2, 0.01% BSA, 0.0005% Tween 20, 1 mM ATP and 1 μM peptide substrate. […] Enzyme concentrations and incubation times were optimized for each new enzyme preps and were modified slightly over time to ensure 20% to 30% phosphorylation. The assays were stopped with 15 μL of 180 mM HEPES, pH 7.4, 20 mM EDTA, and 0.2% Coating Reagent 3. The assay plates were placed on a Caliper Life Science LC3000 instrument, and each well was sampled using appropriate separation conditions to measure the unphosphorylated and phosphorylated peptide.
Tyrosine-protein kinase JAK2, sequence (O60674 whole entry): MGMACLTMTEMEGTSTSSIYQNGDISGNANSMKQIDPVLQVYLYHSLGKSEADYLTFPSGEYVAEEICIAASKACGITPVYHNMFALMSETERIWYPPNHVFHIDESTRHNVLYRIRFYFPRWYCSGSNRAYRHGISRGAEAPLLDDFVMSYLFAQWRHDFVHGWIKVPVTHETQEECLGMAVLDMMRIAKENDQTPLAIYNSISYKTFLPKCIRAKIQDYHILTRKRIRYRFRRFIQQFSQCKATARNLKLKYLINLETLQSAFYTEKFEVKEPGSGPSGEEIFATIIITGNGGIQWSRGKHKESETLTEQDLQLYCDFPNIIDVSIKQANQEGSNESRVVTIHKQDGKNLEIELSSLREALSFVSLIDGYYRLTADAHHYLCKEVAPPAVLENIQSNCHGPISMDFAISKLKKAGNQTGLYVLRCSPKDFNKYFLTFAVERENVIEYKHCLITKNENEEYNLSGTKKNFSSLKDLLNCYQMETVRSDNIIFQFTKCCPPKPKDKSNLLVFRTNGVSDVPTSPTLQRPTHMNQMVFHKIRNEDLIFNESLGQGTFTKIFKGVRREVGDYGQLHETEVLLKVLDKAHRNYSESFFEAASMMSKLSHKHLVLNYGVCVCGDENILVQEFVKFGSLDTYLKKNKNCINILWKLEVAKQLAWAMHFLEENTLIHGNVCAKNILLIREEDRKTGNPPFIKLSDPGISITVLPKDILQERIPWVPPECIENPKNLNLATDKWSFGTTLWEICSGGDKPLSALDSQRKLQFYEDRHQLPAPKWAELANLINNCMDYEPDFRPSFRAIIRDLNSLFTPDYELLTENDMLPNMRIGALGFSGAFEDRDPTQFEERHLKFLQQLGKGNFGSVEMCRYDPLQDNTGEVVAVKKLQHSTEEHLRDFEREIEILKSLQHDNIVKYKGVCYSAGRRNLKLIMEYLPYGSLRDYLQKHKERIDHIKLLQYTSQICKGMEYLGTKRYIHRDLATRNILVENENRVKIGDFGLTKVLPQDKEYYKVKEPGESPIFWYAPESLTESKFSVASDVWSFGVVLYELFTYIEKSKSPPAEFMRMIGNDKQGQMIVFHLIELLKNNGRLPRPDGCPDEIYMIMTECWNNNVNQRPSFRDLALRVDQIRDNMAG

pIC50 [1]: 6.12
pIC50 [2]: 7.62
pIC50 [3]: < 5.00
pIC50 [4]: 6.80
Compound: Cn1cc(-c2cn3nccc3c(-c3cnn([C@]4(CC#N)C[C@@H](CC#N)C4)c3)n2)cn1
